e = 2'-O-(2-methoxyethyl) (MOE); d = 2'-deoxy (DNA)
Legend:
human TGF-beta1 mRNA [1] = assay: Dose-dependent antisense inhibition of human TGF-beta1 in HuVEC cells, Lipofectamine 2000, 0.9375-30 nM (Example 3); assay type: cell-based; details: Lipofectamine 2000
In short: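 HuVEC cells, 5,000/well, were transfected with Lipofectamine 2000 and 0.9375-30 nM antisense oligonucleotide for 4 h, then recovered about 16 h. TGF-beta1 mRNA was quantified by real-time PCR (primer probe set RTS 2980), normalised to RIBOGREEN total RNA, and expressed as percent inhibition versus untreated cells.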

human TGF-beta1 mRNA [2] = assay: Dose-dependent antisense inhibition of human TGF-beta1 in HuVEC cells, Lipofectamine 2000, 0.3292-80 nM, comparison with oligos of U.S. Pat. No. 6,436,909 (Example 4); assay type: cell-based
Experimental: The dose-dependent antisense inhibition potential of these gapmers was compared with that of Oligo IDs 104992 and 1138498 from U.S. Pat. No. 6,436,909. Cells were plated at a density of 5,000 cells per well and transfected using Lipofectamine™ 2000 reagent with 0.3292 nM, 0.9877 nM, 2.963 nM, 8.8889 nM, 26.6667 nM, and 80 nM concentrations of antisense oligonucleotide for 4 hours, as specified in Table 4. After a recovery period of approximately 16 hours, RNA was isolated from the cells and TGF-beta1 mRNA levels were measured by quantitative real-time PCR. Human TGF-beta1 primer probe set RTS 2980 was used to measure mRNA levels. TGF-beta1 mRNA levels were adjusted according to total RNA content, as measured by RIBOGREEN®. Results are presented as percent inhibition of TGF-beta1, relative to untreated control cells. […] All the antisense oligonucleotides in Table 4 target human TGF-beta1 mRNA (SEQ ID NO: 1).

human TGF-beta1 mRNA [3] = assay: Dose-dependent confirmation of antisense inhibition of human TGF-beta1 in HuVEC cells after large-scale synthesis, Lipofectamine 2000, 0.007-15 nM (Example 5); assay type: cell-based; details: for percent inhibition of TGF-beta1: Lipofectamine 2000
Experimental: Cells were plated at a density of 5,000 cells per well and transfected using Lipofectamine™ 2000 reagent with 0.007 nM, 0.021 nM, 0.062 nM, 0.185 nM, 0.556 nM, 1.667 nM, 5 nM, and 15 nM concentrations of antisense oligonucleotide for 4 hours, as specified in Table 5. After a recovery period of approximately 16 hours, RNA was isolated from the cells and TGF-beta1 mRNA levels were measured by quantitative real-time PCR. Human TGF-beta1 primer probe set RTS 2980 was used to measure mRNA levels. TGF-beta1 mRNA levels were adjusted according to total RNA content, as measured by RIBOGREEN®. Results are presented as percent inhibition of TGF-beta1, relative to untreated control cells.

human TGF-beta1 mRNA [4] = assay: Dose-dependent confirmation of antisense inhibition of human TGF-beta1 in HuVEC cells, electroporation (Example 6); assay type: cell-based
Experimental: The gapmers from Example 5 (see Table 5) were also tested at various doses in HuVEC cells using electroporation as the transfection reagent. Cells were plated at a density of 20,000 cells per well and transfected using electroporation with 0.15625 nM, 0.3125 nM, 0.625 nM, 1.25 nM, 2.5 nM, 5 nM, 10 nM, and 20 nM concentrations of antisense oligonucleotide for 4 hours, as specified in Table 6. After a recovery period of approximately 16 hours, RNA was isolated from the cells and TGF-beta1 mRNA levels were measured by quantitative real-time PCR. TGF-beta1 mRNA levels were adjusted according to total RNA content, as measured by RIBOGREEN®. Results are presented as percent inhibition of TGF-beta1, relative to untreated control cells.

BALB/c mice [5] = assay: Tolerability in BALB/c mice: liver, kidney and spleen weights (Example 8); assay type: in vivo, mouse
Experimental: The mice were sacrificed 2 days after the last administration and liver, spleen and kidney weights were measured. Plasma transaminase levels were also evaluated.
The weights of liver, kidney and spleen of the mice were measured after 4 weeks and liver weights are presented in Table 10 as a percentage change compared to the corresponding weights in the PBS control. The percentage changes in kidney and spleen weight in the treated mice compared to the PBS control were negligible and are not shown.

murine TGF-beta1 = assay: Inhibition of murine TGF-beta1 expression (data not shown); set-up: species or system mouse
BALB/c mice [6] = details: mouse, in vivo
Experimental: (§1) These gapmer oligonucleotides were designed to target human TGF-beta1 and have varying degrees of mismatch with murine TGF-beta1 sequence, as shown in Table 1. Oligo ID Nos. 413982 and 414040 have greater than 3 mismatches to the murine TGF-beta1 sequence. Oligo ID No. 414035 has 2 mismatches to murine TGF-beta1. Oligo ID No. 414036 has no mismatches to murine TGF-beta1.
(§2) BALB/c mice were injected with 25 mg/kg or 50 mg/kg of Oligo ID Nos. 413982, 414035, 414036, or 414040 twice a week for 4 weeks. A control group of mice was injected with phosphate buffered saline (PBS) twice a week for 4 weeks. Plasma transaminase levels were evaluated bi-weekly.
(§3) To evaluate the impact of TGF-beta1 antisense oligonucleotides on the hepatic function of mice described above, plasma concentrations of transaminases were measured using an automated clinical chemistry analyzer (Hitachi Olympus AU400e, Melville, N.Y.).

BALB/c mice [7] = assay: Tolerability in BALB/c mice: plasma transaminases ALT and AST (Example 7); details: for aspartate transaminase levels: plasma
Experimental: as §1, §2, §3

## 414036 (antisense GTGTCCTTAAATACAGCCCC; sugars from the 5' end e2 d13 e5, backbone and methylation of C not given here) [compound 414036]
Human TGF-beta1 mRNA [1]; 0.9375 nM
  percent inhibition of TGF-beta1: 56%
Human TGF-beta1 mRNA [1]; 1.875 nM
  percent inhibition of TGF-beta1: 75%
Human TGF-beta1 mRNA [1]; 3.75 nM
  percent inhibition of TGF-beta1: 86%
Human TGF-beta1 mRNA [1]; 7.5 nM
  percent inhibition of TGF-beta1: 93%
Human TGF-beta1 mRNA [1]; 15 nM
  percent inhibition of TGF-beta1: 95%
Human TGF-beta1 mRNA [1]; 30 nM
  percent inhibition of TGF-beta1: 93%
Human TGF-beta1 mRNA [2]; 0.3292 nM
  percent inhibition of TGF-beta1: 70%
Human TGF-beta1 mRNA [2]; 0.9877 nM
  percent inhibition of TGF-beta1: 83%
Human TGF-beta1 mRNA [2]; 2.963 nM
  percent inhibition of TGF-beta1: 91%
Human TGF-beta1 mRNA [2]; 8.8889 nM
  percent inhibition of TGF-beta1: 93%
Human TGF-beta1 mRNA [2]; 26.6667 nM
  percent inhibition of TGF-beta1: 92%
Human TGF-beta1 mRNA [2]; 80.0 nM
  percent inhibition of TGF-beta1: 89%
Human TGF-beta1 mRNA [3]; 0.007 nM
  percent inhibition of TGF-beta1: 5%
Human TGF-beta1 mRNA [3]; 0.021 nM
  percent inhibition of TGF-beta1: 26%
Human TGF-beta1 mRNA [3]; 0.062 nM
  percent inhibition of TGF-beta1: 41%
Human TGF-beta1 mRNA [3]; 0.185 nM
  percent inhibition of TGF-beta1: 58%
Human TGF-beta1 mRNA [3]; 0.556 nM
  percent inhibition of TGF-beta1: 73%
Human TGF-beta1 mRNA [3]; 1.667 nM
  percent inhibition of TGF-beta1: 84%
Human TGF-beta1 mRNA [3]; 5 nM
  percent inhibition of TGF-beta1: 91%
Human TGF-beta1 mRNA [3]; 15 nM
  percent inhibition of TGF-beta1: 90%
Human TGF-beta1 mRNA [3]; Lipofectamine 2000, Example 5
  IC50: 0.15 nM
Human TGF-beta1 mRNA [4]; 0.15625 nM oligonucleotide
  percent inhibition of TGF-beta1 mRNA relative to untreated control cells: 10%
Human TGF-beta1 mRNA [4]; 0.3125 nM oligonucleotide
  percent inhibition of TGF-beta1 mRNA relative to untreated control cells: 38%
Human TGF-beta1 mRNA [4]; 0.625 nM oligonucleotide
  percent inhibition of TGF-beta1 mRNA relative to untreated control cells: 55%
Human TGF-beta1 mRNA [4]; 1.25 nM oligonucleotide
  percent inhibition of TGF-beta1 mRNA relative to untreated control cells: 74%
Human TGF-beta1 mRNA [4]; 2.5 nM oligonucleotide
  percent inhibition of TGF-beta1 mRNA relative to untreated control cells: 83%
Human TGF-beta1 mRNA [4]; 5.00 nM oligonucleotide
  percent inhibition of TGF-beta1 mRNA relative to untreated control cells: 92%
Human TGF-beta1 mRNA [4]; 10.00 nM oligonucleotide
  percent inhibition of TGF-beta1 mRNA relative to untreated control cells: 94%
Human TGF-beta1 mRNA [4]; 20 nM oligonucleotide
  percent inhibition of TGF-beta1 mRNA relative to untreated control cells: 92%
BALB/c mice [5]; 25 mg/kg twice a week for 4 weeks
  Liver % Weight change relative to PBS control: +17%
BALB/c mice [5]; 50 mg/kg twice a week for 4 weeks
  Liver % Weight change relative to PBS control: +35%
BALB/c mice [5]; 25 or 50 mg/kg twice a week for 4 weeks, vs PBS control
  increase in liver weight: ≤ 35%
Murine TGF-beta1
  murine TGF-beta1 expression: inhibits
BALB/c mice [6]
  tolerability compared to Oligo ID 105204: improved tolerability
BALB/c mice [7]; 25 mg/kg twice a week, Week 2
  alanine transaminase levels: 70 IU/L
  aspartate transaminase levels: 119 IU/L
BALB/c mice [7]; 25 mg/kg twice a week, Week 4
  alanine transaminase levels: 61 IU/L
  aspartate transaminase levels: 148 IU/L
BALB/c mice [7]; 50 mg/kg twice a week, Week 2
  alanine transaminase levels: 99 IU/L
  aspartate transaminase levels: 183 IU/L
BALB/c mice [7]; 50 mg/kg twice a week, Week 4
  alanine transaminase levels: 190 IU/L
  aspartate transaminase levels: 467 IU/L
BALB/c mice [7]; 25 or 50 mg/kg twice a week for four weeks
  increase in ALT/AST: < 8 fold

Reference: patent US20110172296A1, “MODULATION OF TRANSFORMING GROWTH FACTOR-BETA 1 EXPRESSION” (priority 2010, published 2011)
